Measurements from patent publication US20230248826A1, “Synchronizing Tumor Cells to the G2/M Phase Using TTFields Combined with Taxane or Other Anti-Microtubule Agents” (Novocure GmbH, priority 2016, published 2023).

Experiments:
Format in all cases: cell-based, human
[1] = tested on: OVCAR-3 cells; experiment: Cell cycle analysis by flow cytometry, OVCAR-3; details: 72 hours
Method: (§1) The human ovarian carcinoma cell line A2780 was obtained from the European Collection of Cell Cultures. The human ovarian adenocarcinoma cell lines OVCAR-3 (HTB-161) and Caov-3 (HTB-75) were obtained from the American Type Culture Collection (ATCC). Paclitaxel (Sigma Aldrich, Rehovot, Israel) dissolved in DMSO was used at the following concentrations: 1 nM, 2 nM, 4 nM, 10 nM, and 100 nM. TTFields were applied in vitro using special ceramic Petri dishes with two pairs of transducer arrays printed perpendicularly on the outer walls of a Petri dish. The inner surfaces of the electrodes were coated with a high dielectric constant ceramic (lead magnesium niobate-lead titanate (PMN-PT)). […] By selectively activating the signals that were applied to the electrodes, the orientation of the TTFields was switched 90° every 1 second, thus covering the majority of the orientation axis of cell divisions, as previously described by Kirson et al. During the experiment, temperature was measured by 2 thermistors (Omega Engineering, Stamford, Conn.) attached to the walls of the Petri dish. […] Cell cycle distribution was then quantified using iCyt EC800. Fluorescence signals were collected at the wavelengths of 525/50 nm for Annexin V and 665/30 nm for 7-AAD. The data was analyzed using the Flowjo software. […]

[2] = tested on: Caov-3 cells; experiment: Cell cycle analysis by flow cytometry, Caov-3; details: 72 hours
Method: as §1

[3] = tested on: A2780 cells; experiment: Cell cycle analysis by flow cytometry, A2780; details: 8 hours
Method: as §1

[4] = tested on: A2780 cells; experiment: Mitotic figures analysis by confocal microscopy, A2780; details: 4 nM paclitaxel combined with 2.7 V/cm pk-pk, 200 kHz TTFields, 72 hours, A2780, compared to control and single treatments
Method: (§2) The human ovarian carcinoma cell line A2780 was obtained from the European Collection of Cell Cultures. The human ovarian adenocarcinoma cell lines OVCAR-3 (HTB-161) and Caov-3 (HTB-75) were obtained from the American Type Culture Collection (ATCC). Paclitaxel (Sigma Aldrich, Rehovot, Israel) dissolved in DMSO was used at the following concentrations: 1 nM, 2 nM, 4 nM, 10 nM, and 100 nM.
(§3) TTFields were applied in vitro using special ceramic Petri dishes with two pairs of transducer arrays printed perpendicularly on the outer walls of a Petri dish. The inner surfaces of the electrodes were coated with a high dielectric constant ceramic (lead magnesium niobate-lead titanate (PMN-PT)). The transducer arrays were connected to a sinusoidal waveform generator which generated fields at 200 kHz in the medium. By selectively activating the signals that were applied to the electrodes, the orientation of the TTFields was switched 90° every 1 second, thus covering the majority of the orientation axis of cell divisions, as previously described by Kirson et al. During the experiment, temperature was measured by 2 thermistors (Omega Engineering, Stamford, Conn.) attached to the walls of the Petri dish. All cells suspensions were grown on a cover slip inside the Petri dish and treated with TTFields at intensity of 2.7 V/cm. […]

[5] = tested on: OVCAR-3 cells; experiment: Mitotic figures analysis by confocal microscopy, OVCAR-3; details: 4 nM paclitaxel combined with 2.7 V/cm pk-pk, 200 kHz TTFields, 72 hours, OVCAR-3, compared to control and single treatments
Method: as §2, §3

[6] = tested on: Caov-3 cells; experiment: Mitotic figures analysis by confocal microscopy, Caov-3; details: 4 nM paclitaxel combined with 2.7 V/cm pk-pk, 200 kHz TTFields, 72 hours, Caov-3, compared to control and single treatments
Method: as §2, §3

[7] = low dose paclitaxel (2, 4 and 10 nM) combined with TTFields (2.7 V/cm, 200 kHz)
[8] = paclitaxel alone, without TTFields

CC(=O)O[C@H]1C(=O)[C@@]2(C)[C@H]([C@H](OC(=O)c3ccccc3)[C@]3(O)C[C@H](OC(=O)[C@H](O)[C@@H](NC(=O)c4ccccc4)c4ccccc4)C(C)=C1C3(C)C)[C@]1(OC(C)=O)CO[C@@H]1C[C@@H]2O [paclitaxel]
number of cells in the G2/M phase [1, 7]: dramatically increased
cells in the G2/M phase [1, 8]: accumulated in the G2/M phase in a dose dependent manner
number of cells in the G2/M phase [2, 7]: dramatically increased
cells in the G2/M phase [2, 8]: accumulated in the G2/M phase in a dose dependent manner
cells in the G2/M phase ([3]; low dose paclitaxel combined with TTFields (2.7 V/cm, 200 kHz)): accumulated in the G2/M phase even after a short treatment duration
cells in the G2/M phase [3, 8]: accumulated in the G2/M phase in a dose dependent manner
mitotic figures (mitotic arrest) [4]: substantial increase in mitotic figures
mitotic figures (mitotic arrest) [5]: substantial increase in mitotic figures
mitotic figures (mitotic arrest) [6]: substantial increase in mitotic figures
